Measurements: US20250339817A1, “A PROCESS FOR THE NITRIC OXIDE ABATEMENT THROUGH BIOLOGICAL TREATMENTS” (FUNDACIÓ EURECAT, priority 2022, published 2025)

What was measured:
Format in all cases: physicochemical
[1] = Mass transfer gas-to-liquid tests in a two-phase system (CO2/NAP); conditions: pure CO2 (without gas mixture), 1 h
Experimental: Mass transfer gas-to-liquid batch tests were performed to determine the mass transfer rate of CO2 in the presence of NAP. The initial samples were filled with CO2 to reach a peak transmittance area between 6200 and 7100 cm-1, then 10 mL of each NAP (HTX, HNO and HEX) was injected. […] CO2 in the gas phase were measured at the beginning and at the end of the test. All experiments were performed in 500 mL amber glass bottles previously prepared in a glove box to maintain an inert atmosphere and carried out per at least triplicate at a temperature of 25° C. and 100 rpm orbital shaking in an incubator.
(§1) NO and CO2 peak area in the gas phase were measured by Fourier Transform Infrared Spectroscopy (FTIR). In these experiments the peak area was analyzed and not the concentration. Therefore, the performance of the tests will be given in percent (%) area reduction, which is defined in Eq 1. Nitrogen compounds were analyzed in liquid samples after being centrifuged at 15,000 rpm and filtration (0.22 μm) to separate the NAP found in the sample. NO2^− and NO3^− were measured using Hach Lange kits (LCK342 and LCK 339, respectively, Hach Lange, Germany).
(§2) The initial area (Areainitial) is a quantitative measure of the transmittance at certain given wavelengths (NO=1730-1930 cm^−1; CO2=2230-2400 cm^−1) and correlates the presence of the compound in the sample at time=0 h. The final area (Areafinal) is a quantitative measure of the transmittance at the given wavelengths (NO=between 1730-1930 cm^−1; CO2=2230-2400 cm-1) and correlates with the presence of the compound in the sample at time=1 h.

[2] = Mass transfer gas-to-liquid batch tests in a two-phase system with a mixture of gases (CO2/NO/NAP), NO; conditions: 1 h
Experimental: (§3) Mass transfer gas-to-liquid batch tests with a mixture of gases with CO2 and NO were performed to determine the mass transfer rate and selectivity of these gases in the presence of NAP. The initial samples were filled with CO2 to reach a peak transmittance area between 6388 and 8018 cm^−1 and NO to reach a peak of transmittance area between 73 and 84 cm^−1, then 10 mL of each NAP (HTX, HNO and HEX) was injected. CO2 and NO in the gas phase were measured at the beginning and at the end of the test. All experiments were carried out per at least triplicate at a temperature of 25° C. and 100 rpm orbital shaking in an incubator. These tests had also a blank in which the NAP phase was replaced by phosphate buffer (pH=8).
as §1, §2

[3] = Mass transfer gas-to-liquid batch tests in a three-phase system (CO2/NO/Aqueous/NAP), CO2; conditions: gas mixture, phosphate buffer
Experimental: (§4) Mass transfer gas-to-liquid batch tests with a mixture of gases with CO2 and NO were performed to determine the mass transfer rate and selectivity of these gases in the presence of NAP and aqueous phase. The results were compared with respect to blank (water or phosphate buffer at pH 8 without NAP). The initial samples were filled with CO2 to reach a peak transmittance area between 8010 and 8940 cm^−1 and NO to reach a peak of transmittance area between 11 and 14 cm^−1, then 10 mL of each NAP (HTX, HNO and HEX) was injected. Tests were performed with a phosphate buffer at pH 8 at a 10% v/v ratio of NAP/aqueous phase. All experiments were performed in 500 mL amber glass bottles previously prepared in a glove box to maintain an inert atmosphere and carried out per at least triplicate at a temperature of 25° C. and 100 rpm orbital shaking in an incubator. CO2 and NO in the gas phase were measured at the beginning and at the end of the test. Also, the liquid phase was monitored for pH, nitrite (NO2^−) and nitrate (NO3^−) at the end of each test.
as §1, §2

[4] = Nitric oxide (NO) absorption with pure NAPs (batch tests); conditions: pure NAP, first screening test, 1 hour, 25° C., initial NO 4500-5100 ppmv
Experimental: Batch tests with pure NAPs were performed in 120 mL glass amber vials with an initial concentration of NO between 4500 and 5100 ppmv and different amounts of NAPs (DES, SO, HTX, HNO and HEX). For this experiment each NAP was added to a vial containing NO. Each NAP was tested alone. The results were compared with respect to a blank containing deionized water instead of NAP. All experiments were carried out at a temperature of 25° C. and agitation of 100 rpm in an incubator, five replicates were made per point. Gas phase analysis (NO and NO2) was performed at the beginning of the experiment and at the end (1 hour).
NO and NO2 concentrations in the gas phase were measured by Fourier Transform Infrared Spectroscopy (FTIR) from an aliquot of 1 mL (PerkinElmer Inc., Spain). The NO removal efficiency in the tests was calculated from the difference in NO concentration from the beginning and end of each test. Nitrogen compounds and chemical oxygen demand (COD) were analyzed in liquid samples after centrifuged at 15,000 rpm and filtration (0.22 μm) to separate the NAP found in the sample. Nitrite and nitrate were measured using Hach Lange kits (LCK342 and LCK 339, respectively, Hach Lange, Germany). COD was measured using Hach Lange kits (LCK114 and LCK 214, respectively, Hach Lange, Germany).

[5] = Mass transfer gas-to-liquid batch tests in a two-phase system with a mixture of gases (CO2/NO/NAP), CO2; conditions: 1 h
Experimental: as §3, §1, §2

[6] = Mass transfer gas-to-liquid batch tests in a three-phase system (CO2/NO/Aqueous/NAP), NO; parameters: concentration or dose not given beside the values; conditions: phosphate buffer
Experimental: as §4, §1, §2

Row | SMILES | CO2 peak area reduction [1] | NO percent of area reduction [2] | CO2 peak area difference [3] | RE NO (NO removal efficiency) [4] | CO2 peak area reduction [5] | NO percent of area reduction ([6]; with CO2) | NO percent of area reduction ([6]; without CO2)
1 | C[SiH](O[Si](C)(C)C)O[Si](C)(C)C [HTX, 1,1,1,3,5,5,5-heptamethyl-trisiloxane] | 99±0.2% | 62±5% | 7±2% | 49.2% | 97±0.9% | 56±7% | 70±3%
2 | CC(CC(C)(C)C)CC(C)(C)CC(C)(C)C (centres unmarked) [HNO, 2,2,4,4,6,8,8-heptamethylnonane] | 18±3% | 21±4% | 3±7% |  | 13±0.3% | 54±4% | 32±4%
3 | CCCCCCCCCCCCCCCC [HEX, n-hexadecane] | 11±3% | 31±6% | 8±2% | 29.2% | 15±2% | 28±3% | 26±5%
